Assay: Body weight monitoring and tolerability in Study #2
Assay type: in vivo, C57Bl/6 mice
Details: triple oropharyngeal BLM, within the first 7 days, compared to saline group
Source text: Figure A illustrates the setup of the pharmacological experiment identified as Study #2 (see also Table S2 in the Supporting Information). After triple BLM instillation, all mice underwent μCT imaging on days 14 and 21, indicating the beginning and the end of the therapeutic window. , On day 14, the BLM-treated mice were divided into 5 groups, namely, Vehicle, NINT (23), NINT (94), PepNIN 1 (23), and Ligand 11 (23). The reference standard in our drug discovery studies is NINT (94), representing the ideal dosage (94 μmol/kg) of the FDA-approved drug that produces antifibrotic effects in the preclinical BLM model. To better emphasize the synergistic therapeutic effect of nintedanib when it is covalently conjugated with our integrin ligand, the stoichiometric dose of nintedanib within the PepNIN 1 group was reduced by four times (to 23 μmol/kg). […]
The experiments were carried out on male C57Bl/6 mice aged 7–8 weeks, purchased from Envigo (San Pietro al Natisone, Udine, Italy). […] All required measures were taken to mitigate the animals’ distress or discomfort, and a designated veterinarian or trained technicians assessed pain levels daily using a Visual Analogue Scale (VAS) ranging from 0 to 10. […]

Bleomycin hydrochloride [BLM]
body weight reduction: 10–15%

— paper PMC12519263, “Antifibrotic Efficacy of a Nintedanib–Peptide Conjugate and Diagnostic Potential of a Fluorescent Companion Probe Targeting αVβ6 Integrin in Idiopathic Pulmonary Fibrosis” (ACS Pharmacology & Translational Science, 2025)
